The test system of test [1] is C. acnes tdk knock-out. The format is cell-based, Cutibacterium acnes.
Test [2] has as its system PCi-SEB_Cau sebocytes. The format is cell-based, human.
Test [3] has as its system Neutrophil gelatinase-associated lipocalin 2 (NGAL) protein. The settings on record: human, in vivo; cited from earlier work.

“Also recorded” adds a separate entry of the source.

Regarding `O=c1[nH]c(=O)n([C@H]2C[C@H](O)[C@@H](CO)O2)cc1F` [FUDR, 5-fluoro-2′-deoxyuridine], in test [1], the “growth of tdk knock-out (knock-in) strain on FUDR plates” value is “could grow; also recorded: no growth inhibiting effect”.
`CC[C@H]1OC(=O)[C@H](C)[C@@H](O[C@H]2C[C@@](C)(OC)[C@@H](O)[C@H](C)O2)[C@H](C)[C@@H](O[C@@H]2O[C@H](C)C[C@H](N(C)C)[C@H]2O)[C@](C)(O)C[C@@H](C)C(=O)[C@H](C)[C@@H](O)[C@]1(C)O` [ery, erythromycin]: in test [1], the “growth of tdk knock-out (knock-in, ermE) strain on erythromycin plates” value is given as “could grow”.
With `CC1=C(/C=C/C(C)=C/C=C/C(C)=C\C(=O)O)C(C)(C)CCC1` [isotretinoin, 13-cis retinoic acid], the “decrease in sebum production compared to AA treated cells” value in test [2] worked out at 1.8 fold. The “increase in NGAL protein in treated patients” value in test [3] is recorded as 7 fold.

Values taken from patent publication US20250146007A1 (priority 2022, published 2025).
